# Assay results from patent US11845984B2, “Methods for obtaining and correcting biological sequence information” (CYGNUS BIOSCIENCES (BEIJING) CO., LTD., priority 2015, dated 2023).
# Assay: Spectral (optical) properties of fluorophores
# Format: physicochemical
# Description: Although Me-FAM has similar maximum emission wavelength as TG, the extinction coefficient and quantum yield of Me-FAM are much lower (FIG. 8). At the same time, the broad emission spectrum of Me-FAM greatly overlapped with other fluorophores like Me-HCF, which makes it inapplicable for multi-color sequencing application in future. Instead, the strong fluorescence and narrower spectrum of TG will tackle the problem more easily.
# First, the spectrums of TG-dA4P were measured at room temperature. For emission measurement: set excitation wavelength at 460 nm, scan 480 to 600 nm for emission; for absorption measurement: scan 310 to 550 nm. Then CIP and PDE were added and spectrum was recorded sequentially at the same condition.
structure (smiles),measurement,setting,value
"Cc1ccccc1-c1c2ccc(=O)cc-2oc2cc(O)ccc12 [TG, Tokyo Green]",Emission max,,513 nm
same,Excitation max,,490 nm
same,Extinction coefficient,,8 × 10^4
same,Quantum Yield,,82%
same,fluorescence quantum yield,at 490 nm,0.82
